In the assay the target is T1, recombinant human PLK1[2-369]T210D (Homo sapiens, UniProt P53350, T210D).
T1 construct: recombinant human PLK1[2-369]T210D; Smt (SUMO) fusion partner (N, cleaved yes); host or cells: E. coli
Kind of assay: PLK1 DELFIA Kinase Assay. In kind it is biochemical. The conditions noted are these: 50 μM ATP, 2 μM peptide substrate, 0.3 nM enzyme, 90 minutes at room temperature. A digest of the protocol: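 E. coli-expressed human PLK1, cleaved from an Smt fusion after Ni2+ purification, is reacted with or without inhibitor for 90 minutes at room temperature and stopped with EDTA. Product is captured on Neutravidin plates and quantified by europium DELFIA time-resolved fluorescence.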

T1 sequence (P53350 2-369 T210D): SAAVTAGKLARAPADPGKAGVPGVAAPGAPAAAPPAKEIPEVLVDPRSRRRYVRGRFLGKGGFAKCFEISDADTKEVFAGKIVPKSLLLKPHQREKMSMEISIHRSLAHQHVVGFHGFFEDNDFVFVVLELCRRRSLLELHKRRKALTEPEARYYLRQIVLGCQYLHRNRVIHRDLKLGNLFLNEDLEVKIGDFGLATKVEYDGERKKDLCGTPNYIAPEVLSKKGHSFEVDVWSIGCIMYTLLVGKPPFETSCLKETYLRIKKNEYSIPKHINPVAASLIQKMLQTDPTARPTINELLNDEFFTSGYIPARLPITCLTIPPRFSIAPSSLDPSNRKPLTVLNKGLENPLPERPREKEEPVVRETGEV

What is called IC50 is the concentration needed to halve the response being measured. Consider `CCN1CCN(c2cncc(Nc3ncc4c(n3)-c3ccc(Cl)cc3NC(=S)C4)c2)C[C@H]1C` [Compound I-58, 9-chloro-2-({5-[(3R)-4-ethyl-3-methylpiperazin-1-yl]pyridin-3-yl}amino)-5,7-dihydro-6H-pyrimido[5,4-d][1]benzazepine-6-thione], for which the IC50 is less than 5 nM.
As for `Cc1nc(N2CCOCC2)ccc1Nc1ncc2c(n1)-c1ccc(Cl)cc1NC(=S)C2` [Compound I-109, 9-chloro-2-[(2-methyl-6-morpholin-4-ylpyridin-3-yl)amino]-5,7-dihydro-6H-pyrimido[5,4-d][1]benzazepine-6-thione], the figure is less than 5 nM.
The figure for `Cc1nc2c(cc1Nc1ncc3c(n1)-c1ccc(C(F)(F)F)cc1NC(=S)C3)CCCN2` [Compound I-115, 2-[(2-methyl-5,6,7,8-tetrahydro-1,8-naphthyridin-3-yl)amino]-9-(trifluoromethyl)-5,7-dihydro-6H-pyrimido[5,4-d][1]benzazepine-6-thione] is less than 5 nM; for `Cc1ccnc(C)c1Nc1ncc2c(n1)-c1ccc(C(F)(F)F)cc1NC(=S)C2` [Compound I-98, 2-[(2,4-dimethylpyridin-3-yl)amino]-9-(trifluoromethyl)-5,7-dihydro-6H-pyrimido[5,4-d][1]benzazepine-6-thione] it is greater than 25 nM; for `Cc1ncc(CCN2CCC(N(C)C)CC2)cc1Nc1ncc2c(n1)-c1ccc(Cl)cc1NC(=S)C2` [Compound I-59, 9-chloro-2-[(5-{2-[4-(dimethylamino)piperidin-1-yl]ethyl}-2-methylpyridin-3-yl)amino]-5,7-dihydro-6H-pyrimido[5,4-d][1]benzazepine-6-thione] it is less than 5 nM.
As for `Cc1nc(C(=O)NC2CCN(C)CC2)ccc1Nc1ncc2c(n1)-c1ccc(Cl)cc1NC(=S)C2` [Compound I-116, 5-[(9-chloro-6-thioxo-6,7-dihydro-5H-pyrimido[5,4-d][1]benzazepin-2-yl)amino]-6-methyl-N-(1-methylpiperidin-4-yl)pyridine-2-carboxamide], the IC50 was 5 to 25 nM.
As for `Cc1ccc(Nc2ncc3c(n2)-c2ccc(Cl)cc2NC(=S)C3)c(C)n1` [Compound I-81, 9-chloro-2-[(2,6-dimethylpyridin-3-yl)amino]-5,7-dihydro-6H-pyrimido[5,4-d][1]benzazepine-6-thione], the figure is less than 5 nM; as for `Cc1nc(NC2CCN(C)CC2)ccc1Nc1ncc2c(n1)-c1ccc(Cl)cc1NC(=S)C2` [Compound I-22, 9-chloro-2-({2-methyl-6-[(1-methylpiperidin-4-yl)amino]pyridin-3-yl}amino)-5,7-dihydro-6H-pyrimido[5,4-d][1]benzazepine-6-thione], less than 5 nM.
On to `Cc1ncc(C2CCN(C)CC2(C)C)cc1Nc1ncc2c(n1)-c1ccc(Cl)cc1NC(=S)C2` (centres unmarked) [Compound I-63, 9-chloro-2-{[2-methyl-5-(1,3,3-trimethylpiperidin-4-yl)pyridin-3-yl]amino}-5,7-dihydro-6H-pyrimido[5,4-d][1]benzazepine-6-thione], for which the IC50 was less than 5 nM.
The figure for `Cc1nc(N2CCCC2)ccc1Nc1ncc2c(n1)-c1ccc(Cl)cc1NC(=S)C2` [Compound I-106, 9-chloro-2-[(2-methyl-6-pyrrolidin-1-ylpyridin-3-yl)amino]-5,7-dihydro-6H-pyrimido[5,4-d][1]benzazepine-6-thione] is less than 5 nM.
On to `Cc1ncc(CCN2C[C@@H](C)O[C@@H](C)C2)cc1Nc1ncc2c(n1)-c1ccc(Cl)cc1NC(=S)C2` [Compound I-31, 9-chloro-2-[(5-{2-[(2R,6S)-2,6-dimethylmorpholin-4-yl]ethyl}-2-methylpyridin-3-yl)amino]-5,7-dihydro-6H-pyrimido[5,4-d][1]benzazepine-6-thione], for which the IC50 was less than 5 nM.
As for `CN(C)CCc1cncc(Nc2ncc3c(n2)-c2ccc(C(F)(F)F)cc2NC(=S)C3)c1` [Compound I-25, 2-({5-[2-(dimethylamino)ethyl]pyridin-3-yl}amino)-9-(trifluoromethyl)-5,7-dihydro-6H-pyrimido[5,4-d][1]benzazepine-6-thione], the figure is less than 5 nM; as for `Cc1nc(N2CCCC(N(C)C)C2)ccc1Nc1ncc2c(n1)-c1ccc(C(F)(F)F)cc1NC(=S)C2` (centres unmarked) [Compound I-9, 2-({6-[3-(dimethylamino)piperidin-1-yl]-2-methylpyridin-3-yl}amino)-9-(trifluoromethyl)-5,7-dihydro-6H-pyrimido[5,4-d][1]benzazepine-6-thione], less than 5 nM.
Turning to `Cc1nc2c(cc1Nc1ncc3c(n1)-c1ccc(Cl)cc1NC(=S)C3)CC(N(C)C)CC2` (centres unmarked) [Compound I-96, 9-chloro-2-{[6-(dimethylamino)-2-methyl-5,6,7,8-tetrahydroquinolin-3-yl]amino}-5,7-dihydro-6H-pyrimido[5,4-d][1]benzazepine-6-thione], the IC50 is less than 5 nM.
With `Cc1nc(NCCCN(C)C)ccc1Nc1ncc2c(n1)-c1ccc(Cl)cc1NC(=S)C2` [Compound I-76, 9-chloro-2-[(6-{[3-(dimethylamino)propyl]amino}-2-methylpyridin-3-yl)amino]-5,7-dihydro-6H-pyrimido[5,4-d][1]benzazepine-6-thione], the IC50 was less than 5 nM.
The figure for `Cc1ncc(CCN2CCCCC2)cc1Nc1ncc2c(n1)-c1ccc(C(F)(F)F)cc1NC(=S)C2` [Compound I-87, 2-{[2-methyl-5-(2-piperidin-1-ylethyl)pyridin-3-yl]amino}-9-(trifluoromethyl)-5,7-dihydro-6H-pyrimido[5,4-d][1]benzazepine-6-thione] is less than 5 nM.
The figure for `COc1ncc(Nc2ncc3c(n2)-c2ccc(Cl)cc2NC(=S)C3)cc1CCCN(C)C` [Compound I-8, 9-chloro-2-({5-[3-(dimethylamino)propyl]-6-methoxypyridin-3-yl}amino)-5,7-dihydro-6H-pyrimido[5,4-d][1]benzazapine-6-thione] is less than 5 nM.
The figure for `Cc1nc2c(cc1Nc1ncc3c(n1)-c1ccc(C(F)(F)F)cc1NC(=S)C3)CN(C)CC2` [Compound I-86, 2-[(2,6-dimethyl-5,6,7,8-tetrahydro-1,6-naphthyridin-3-yl)amino]-9-(trifluoromethyl)-5,7-dihydro-6H-pyrimido[5,4-d][1]benzazepine-6-thione] is less than 5 nM.
As to `Cc1nc(NC2CCN(C)CC2)ccc1Nc1ncc2c(n1)-c1ccc(C3CC3)cc1NC(=S)C2` [Compound I-80, 9-cyclopropyl-2-({2-methyl-6-[(1-methylpiperidin-4-yl)amino]pyridin-3-yl}amino)-5,7-dihydro-6H-pyrimido[5,4-d][1]benzazepine-6-thione], the IC50 was less than 5 nM.
The figure for `Cc1ncc(N2CCN(C)CC2)cc1Nc1ncc2c(n1)-c1ccc(C(F)(F)F)cc1NC(=S)C2` [Compound I-46, 2-{[2-methyl-5-(4-methylpiperazin-1-yl)pyridin-3-yl]amino}-9-(trifluoromethyl)-5,7-dihydro-6H-pyrimido[5,4-d][1]benzazepine-6-thione] is less than 5 nM.
With `Cc1ncc(CCN2CCN(C)CC2)cc1Nc1ncc2c(n1)-c1ccc(Cl)cc1NC(=S)C2` [Compound I-6, 9-chloro-2-({2-methyl-5-[2-(4-methylpiperazin-1-yl)ethyl]pyridin-3-yl}amino)-5,7-dihydro-6H-pyrimido[5,4-d][1]benzazepine-6-thione], the IC50 is less than 5 nM.
As for `Cc1ncc(C2CCN(CCF)CC2)cc1Nc1ncc2c(n1)-c1ccc(Cl)cc1NC(=S)C2` [Compound I-84, 9-chloro-2-({5-[1-(2-fluoroethyl)piperidin-4-yl]-2-methylpyridin-3-yl}amino)-5,7-dihydro-6H-pyrimido[5,4-d][1]benzazepine-6-thione], the figure is less than 5 nM; as for `CC(C)(C)C(=O)Nc1ccc(Nc2ncc3c(n2)-c2ccc(Cl)cc2NC(=S)C3)cn1` [Compound I-102, N-{5-[(9-chloro-6-thioxo-6,7-dihydro-5H-pyrimido[5,4-d][1]benzazepin-2-yl)amino]pyridin-2-yl}-2,2-dimethylpropanamide], 5 to 25 nM.
With `Cc1ncc(CCN2C[C@@H](C)O[C@H](C)C2)cc1Nc1ncc2c(n1)-c1ccc(Cl)cc1NC(=S)C2` [Compound I-10], the IC50 is less than 5 nM.
As for `CNCCCc1cnc(C)c(Nc2ncc3c(n2)-c2ccc(C(F)(F)F)cc2NC(=S)C3)c1` [Compound I-62, 2-({2-methyl-5-[3-(methylamino)propyl]pyridin-3-yl}amino)-9-(trifluoromethyl)-5,7-dihydro-6H-pyrimido[5,4-d][1]benzazepine-6-thione], the IC50 was less than 5 nM.
With `Cc1nc(NCCN(C)C)ccc1Nc1ncc2c(n1)-c1ccc(C(F)(F)F)cc1NC(=S)C2` [Compound I-64, 2-[(6-{[2-(dimethylamino)ethyl]amino}-2-methylpyridin-3-yl)amino]-9-(trifluoromethyl)-5,7-dihydro-6H-pyrimido[5,4-d][1]benzazepine-6-thione], the IC50 is less than 5 nM.
As for `Cc1ncc(CCN2CCCC2)cc1Nc1ncc2c(n1)-c1ccc(Cl)cc1NC(=S)C2` [Compound I-45, 9-chloro-2-{[2-methyl-5-(2-pyrrolidin-1-ylethyl)pyridin-3-yl]amino}-5,7-dihydro-6H-pyrimido[5,4-d][1]benzazepine-6-thione], the IC50 was less than 5 nM.
As for `S=C1Cc2cnc(Nc3ccc(N4CCCC4)nc3)nc2-c2ccc(Cl)cc2N1` [Compound I-47, 9-chloro-2-[(6-pyrrolidin-1-ylpyridin-3-yl)amino]-5,7-dihydro-6H-pyrimido[5,4-d][1]benzazepine-6-thione], the IC50 was less than 5 nM.
The figure for `Cc1ncc(CCCN(C)C)cc1Nc1ncc2c(n1)-c1cc(C(F)(F)F)ccc1NC(=S)C2` [Compound I-117, 2-({5-[3-(dimethylamino)propyl]-2-methylpyridin-3-yl}amino)-10-(trifluoromethyl)-5,7-dihydro-6H-pyrimido[5,4-d][1]benzazepine-6-thione] is 5 to 25 nM.
